Measured values published in article PMC5550455, “Unusual Inner-Salt Guaiazulene Alkaloids and bis-Sesquiterpene from the South China Sea Gorgonian Muriceides collaris” (Scientific Reports, 2017).
In brackets after ≈: the same amount, converted by molar mass. Read-outs that look alike come from different tables or passages of the source.

Experiments:
[1] = test system: A549 human tumor cell line; experiment: Cytotoxicity assay, MTT method, A549; type: cell-based
Description: The cytotoxicity of Fr. […] The IC50 value of each compound was calculated by Reed and Muench’s method. Experiments were repeated three times and carried out in triplicate.

[2] = test system: HeLa human tumor cell line; experiment: Cytotoxicity assay, MTT method, HeLa; type: cell-based
Text: (§1) A frozen specimen of Muriceides collaris (9.6 kg, wet weight) was homogenized and then extracted with MeOH four times (each time, 3 days) at room temperature. The combined solutions were concentrated in vacuo and the concentrated extract was subsequently desalted by redissolving with MeOH to yield a residue (221 g). The crude extract was subjected to silica gel vacuum liquid chromatography (VLC), eluting with a gradient of petroleum/acetone (from 10:0 to 1:1, v:v) and subsequently CH2Cl2/MeOH (from 20:1 to 0:1, v-v) to obtain nine fractions (Fr.A−Fr.I). Each fraction was detected by TLC, and was tested for their cytotoxicity against HeLa and K562 cell lines at 50 μg/mL. […] Fr.G (3.5 g) was then subjected to a Sephadex LH-20 column eluted with CH2Cl2/MeOH (1:1, v/v) to give […]. Fr.G-3 (1.018 g) was separated by silica gel CC (CH2Cl2/MeOH, 30:1, v-v) to give six subfractions (Fr.G-3-1 to Fr.G-3-6). Fr.G-3-2 (223 mg) was purified by ODS CC with a gradient of MeOH/H2O (from 20% to 100%) to yield four subfractions (Fr.G-3-2-1 to Fr.G-3-2-4). Fr.G-3-2-3 (25.0 mg) was purified by semi-preparative HPLC (ODS, 5 μm, 250 × 10 mm; MeOH/H2O, 65:35, v/v; 1.5 mL/min) to afford muriceidines A (1, 10.3 mg) and B (2, 9.6 mg). Fr.G-3-4 (137 mg) was purified by ODS column chromatograph with a gradient of MeOH/H2O (from 20% to 100%) to yield four subfractions (Fr.G-3-4-1 to Fr.G-3-4-4). And Fr.G-3-4-1 (9.6 mg) was further purified by semi-preparative HPLC (ODS, 5 μm, 250 × 10 mm; MeOH/H2O, 60:40, v/v; 1.5 mL/min) to afford muriceidine C (3, 4.6 mg). Similarly, muriceidone A (4, 3.7 mg) and the co-isolated known 3-formylguaiazulene (6, 9.1 mg) was obtained in subfraction Fr. […] And GA (5, 1.5 mg) was obtained in subfraction Fr. […] Chiral seperations of partial 2 [Daicel Chiralpack IB, 5 μm, 4.6 mm × 250 mm], 3 [Daicel Chiralpack IC, 5 μm, 4.6 mm × 250 mm; MeOH, 1.5 mL/min], and 4 [Daicel Chiralpack IC, 5 μm, 4.6 mm × 250 mm; Hexane/isopropyl alcohol 97:3, 1.5 mL/min] were performed on Agilent analytical HPLC system to afford optically pure (+)-2 (0.9 mg), (−)-2 (1.2 mg), (+)-3 (2.5 mg), (−)-3 (2.2 mg), (+)-4 (1.5 mg), and (−)-4 (1.6 mg) (Fig. S1).
(§2) The cytotoxicity of Fr. A–I against K562 and HeLa cell lines and compounds 1–4 against K562, HeLa, A-549, and HL-60 human tumor cell lines were determined by MTT method with Adriamycin as a positive control. The IC50 value of each compound was calculated by Reed and Muench’s method. Experiments were repeated three times and carried out in triplicate.

[3] = test system: K562 human tumor cell line; experiment: Cytotoxicity assay, MTT method, K562; type: cell-based
Text: as §1, §2

[4] = test system: HL-60 human tumor cell line; experiment: Cytotoxicity assay, MTT method, HL-60; type: cell-based; conditions: HL-60 cell line
Description: as §2

[5] = test system: larvae of the barnacle Balanus albicostatus; experiment: Antifouling assay, barnacle larval settlement and mortality; type: in vivo, Balanus albicostatus Pilsbry; conditions: Fistulobalanus albicostatus, read-out: EC50 antifouling activity (50% of larval population inhibited to settle)
Description: The antifouling activity of compounds 1–6 against larval of the barnacle Balanus albicostatus Pilsbry were determined according to the literature. EC50 was calculated as the concentration where 50% of the larval population was inhibited to settle as compared to the control while LC50 was calculated as the concentration where 50% of the larval population was dead. Experiments were repeated three times and carried out in triplicate.

[6] = Homo sapiens, HL-60, MTT method

Compound	IC50 ([1]; Homo sapiens)	IC50 ([2]; Homo sapiens, HeLa)	IC50 ([3]; Homo sapiens, K562, MTT method)	IC50 [4, 6]	IC50 ([3]; MTT method)	IC50 ([4]; MTT method)	IC50 [1]	IC50 [2]	EC50 [5]
Cc1cc(/C=C2/C(C(=O)O)=NCC[C@H]2O)c2c(C)ccc(C(C)C)cc1-2 [(−)-2]	> 100 µM	> 100 µM	> 100 µM	> 100 µM					
COC1CCN=C(C(=O)O)/C1=C/c1cc(C)c2cc(C(C)C)ccc(C)c1-2 (racemic) [compound 3, (±)-Muriceidine C]	82.7 µM	> 100 µM	3.68 µM	2.19 µM	3.7 µM	2.2 µM			
CO[C@@H]1CCN=C(C(=O)O)/C1=C/c1cc(C)c2cc(C(C)C)ccc(C)c1-2 [(−)-3]	> 100 µM	53.2 µM	53.2 µM	5.08 µM		5.1 µM			
CC1=CC(=O)C2(C3C(=O)c4c(cc(C(C)C)c(C=O)c4C)C3(C)O)C(C)=CC=C(C(C)C)C=C12 (single isomer, unassigned; (+)) [(+)-4]					88.4 µM	54.2 µM	> 100 µM	42.7 µM	
Cc1cc(C=O)c2c(C)ccc(C(C)C)cc1-2 [compound 6, 3-formyl guaiazulene]									2.39 µg/mL (≈ 10.6 µM)
CO[C@H]1CCN=C(C(=O)O)/C1=C/c1cc(C)c2cc(C(C)C)ccc(C)c1-2 [(+)-3]	> 100 µM	53.7 µM	47.2 µM	22.7 µM					
CC1=CC(=O)C2(C3C(=O)c4c(cc(C(C)C)c(C=O)c4C)C3(C)O)C(C)=CC=C(C(C)C)C=C12 (single isomer, unassigned; (-)) [(−)-4]					> 100 µM	> 100 µM	> 100 µM	40 µM	
COc1cccc2c1C(=O)c1c(O)c3c(c(O)c1C2=O)C[C@@](O)(C(=O)CO)C[C@@H]3O[C@H]1C[C@H](N)[C@H](O)[C@H](C)O1 [Adramycin, Adriamycin, reference compound]	0.6 µM	0.6 µM	0.2 µM	0.3 µM					
CC1=CC(=O)C2(C3C(=O)c4c(cc(C(C)C)c(C=O)c4C)C3(C)O)C(C)=CC=C(C(C)C)C=C12 (racemic) [compound 4, (±)-Muriceidone A]	> 100 µM		> 100 µM	> 100 µM				> 100 µM	
Cc1cc(/C=C2/C(C(=O)O)=NCC[C@@H]2O)c2c(C)ccc(C(C)C)cc1-2 [(+)-2]	> 100 µM	> 100 µM	> 100 µM	> 100 µM					
Cc1cc(/C=C2/C(C(=O)O)=NCCC2O)c2c(C)ccc(C(C)C)cc1-2 (racemic) [compound 2, (±)-Muriceidine B]	> 100 µM	> 100 µM	> 100 µM	> 100 µM					
Cc1cc(/C=C2\CCCN=C2C(=O)O)c2c(C)ccc(C(C)C)cc1-2 [compound 1, Muriceidine A]	> 100 µM	17.9 µM	8.37 µM	> 100 µM	8.4 µM				11.9 µg/mL (≈ 35.5 µM)
